Test results as given in article PMC11287286 (Proceedings of the National Academy of Sciences of the …, 2024).

Columns and labels:
CB2-M293^7.47T&S47^1.46T = CB2-M293^7.47T&S47^1.46T (Homo sapiens, UniProt P34972, M293T/S47T); experiment: GloSensor cAMP assay, CB2 double mutant; format: cell-based
CB1 D176^2.63N = CB1 D176^2.63N (Homo sapiens, UniProt P21554, D176N)
CB2^ECL2/CB1^other = experiment: GloSensor cAMP assay, chimeric construct; format: cell-based, human; conditions: vs wild-type CB1
CB1^ECL2/CB2^other = experiment: GloSensor cAMP assay, chimeric construct; format: cell-based, human; conditions: vs wild-type CB2

Chain of CB2-M293^7.47T&S47^1.46T (P34972 whole entry S47T/M293T): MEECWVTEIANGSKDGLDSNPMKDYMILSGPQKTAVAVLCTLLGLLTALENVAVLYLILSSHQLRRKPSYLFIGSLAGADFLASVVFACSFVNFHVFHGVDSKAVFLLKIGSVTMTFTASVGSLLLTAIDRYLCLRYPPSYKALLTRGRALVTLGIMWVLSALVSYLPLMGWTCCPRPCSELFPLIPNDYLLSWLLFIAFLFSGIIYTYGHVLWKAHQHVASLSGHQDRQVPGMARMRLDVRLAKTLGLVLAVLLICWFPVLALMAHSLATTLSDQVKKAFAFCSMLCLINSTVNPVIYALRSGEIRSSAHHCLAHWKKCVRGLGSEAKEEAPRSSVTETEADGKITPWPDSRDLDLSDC
Chain of CB1 D176^2.63N (P21554 whole entry D176N): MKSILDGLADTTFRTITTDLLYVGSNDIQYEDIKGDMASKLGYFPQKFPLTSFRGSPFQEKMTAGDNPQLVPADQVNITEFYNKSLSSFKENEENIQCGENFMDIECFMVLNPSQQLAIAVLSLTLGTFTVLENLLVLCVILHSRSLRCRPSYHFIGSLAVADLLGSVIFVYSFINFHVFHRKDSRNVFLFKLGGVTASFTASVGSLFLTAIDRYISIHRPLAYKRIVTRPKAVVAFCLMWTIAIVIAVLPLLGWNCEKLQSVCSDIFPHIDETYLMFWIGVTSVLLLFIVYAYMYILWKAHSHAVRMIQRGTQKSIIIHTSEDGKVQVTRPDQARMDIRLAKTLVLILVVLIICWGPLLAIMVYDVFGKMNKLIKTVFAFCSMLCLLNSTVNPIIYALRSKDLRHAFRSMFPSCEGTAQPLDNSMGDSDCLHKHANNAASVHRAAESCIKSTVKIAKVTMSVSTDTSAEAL

Compound: CCCCCCC(C)(C)c1ccc([C@@H]2C[C@H](O)CC[C@H]2CCCO)c(O)c1 [CP55,940]
- activity vs wild-type CB2 (CB2-M293^7.47T&S47^1.46T): remained essentially unchanged
- activity vs wild-type CB1 (CB1 D176^2.63N): significantly reduces the activity
- activation of CB1 receptor containing the CB2 ECL2 loop (CB2^ECL2/CB1^other): same potency as wild-type CB1
- effect of ECL2 replacement on EC50 (CB1^ECL2/CB2^other): no effect on the EC50
